How the values were obtained:
HCC1143 [1] = conditions: 72 h
Procedure, shortened: (§1)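 To measure viability, fluorescence at 560/590 nm was read after 2.5 µl CellTiter-Blue had been added for 2 h at 37 °C. Cells from breast cancer lines had been seeded in 20 µl suspension onto 384-well plates pre-loaded with compound dissolved in 5 µl medium and kept for 72 h. EC50 comes from a fitted percent-inhibition dose-response curve censored at the highest concentration, after per-plate normalisation to vehicle and a positive kill control, Z'-factor checks, and removal of rows with zero drug sensitivity score.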

MDA-MB-231 [2] = conditions: 72 h
Procedure, shortened: as §1

Hs578T [3] = conditions: 72 h
Procedure, shortened: as §1

HCC1937 [4] = conditions: 72 h
Procedure, shortened: as §1

MDA-MB-436 [5] = conditions: 72 h
Procedure, shortened: as §1

MDA-MB-468 [6] = conditions: 72 h
Procedure, shortened: as §1

HCC1599 [7] = conditions: 72 h
Procedure, shortened: as §1

BT-549 [8] = conditions: 72 h
Procedure, shortened: as §1

CAL-120 [9] = conditions: 72 h
Procedure, shortened: as §1

SK-BR-3 [10] = conditions: 72 h
Procedure, shortened: as §1

MFM-223 [11] = conditions: 72 h
Procedure, shortened: as §1

MDA-MB-231 [12] = assay: normalised viability (% of control), CellTiter-Blue; higher = more viable cells (about 100 = DMSO control); conditions: incubation time: 72 h
Procedure, shortened: (§2)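 Vehicle (100) and a positive kill control (0) anchored the normalisation of each plate, and Z'-factor was used for quality control. Breast cancer cell lines in 20 µl suspension were incubated 72 h over compound in 5 µl medium in 384-well plates, followed by CellTiter-Blue at 560/590 nm. The value is normalised viability at a single listed concentration of the series.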

MDA-MB-468 [13] = assay: as above; conditions: incubation time: 72 h
Procedure, shortened: as §2

BT-549 [14] = assay: as above; conditions: incubation time: 72 h
Procedure, shortened: as §2

DU-4475 = conditions: 72 h
Procedure, shortened: (§3)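 For viability and cell death testing, 384-well plates carried compound at 5 concentrations in 10-fold steps over a compound-specific 10,000-fold range, and breast cancer cell lines were seeded in 20 µl suspension. After 72 h incubation, cell death was read by CellTox Green fluorescence (485/520 nm) before viability was read by CellTiter-Glo luminescence. EC50 was fitted from the dose-response curves and censored at the top concentration. Normalisation on each plate was to 0.1 % DMSO and a positive kill control.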

HCC1143 [15] = conditions: 72 h; remark: listed apart in the source
Procedure, shortened: as §3

HDQ-P1 = conditions: 72 h
Procedure, shortened: as §3

MDA-MB-231 [16] = conditions: 72 h; remark: listed apart in the source
Procedure, shortened: as §3

Hs578T [17] = conditions: 72 h; remark: listed apart in the source
Procedure, shortened: as §3

HCC1937 [18] = conditions: 72 h; remark: listed apart in the source
Procedure, shortened: as §3

CAL-51 = conditions: 72 h
Procedure, shortened: as §3

BT-474 = conditions: 72 h
Procedure, shortened: as §3

MDA-MB-436 [19] = conditions: 72 h; remark: listed apart in the source
Procedure, shortened: as §3

MDA-MB-468 [20] = conditions: 72 h; remark: listed apart in the source
Procedure, shortened: as §3

HCC1599 [21] = conditions: 72 h; remark: listed apart in the source
Procedure, shortened: as §3

MDA-MB-453 = conditions: 72 h
Procedure, shortened: as §3

CAL-120 [22] = conditions: 72 h; remark: listed apart in the source
Procedure, shortened: as §3

MCF-10A = conditions: 72 h
Procedure, shortened: as §3

CAL-148 = conditions: 72 h
Procedure, shortened: as §3

SK-BR-3 [23] = conditions: 72 h; remark: listed apart in the source
Procedure, shortened: as §3

CAL-85-1 = conditions: 72 h
Procedure, shortened: as §3

MFM-223 [24] = conditions: 72 h; remark: listed apart in the source
Procedure, shortened: as §3

| SMILES | EC50, CellTiter-Blue viability (HCC1143 [1]) [nM] | EC50, CellTiter-Blue viability (MDA-MB-231 [2]) [nM] | EC50, CellTiter-Blue viability (Hs578T [3]) [nM] | EC50, CellTiter-Blue viability (HCC1937 [4]) [nM] | EC50, CellTiter-Blue viability (MDA-MB-436 [5]) [nM] | EC50, CellTiter-Blue viability (MDA-MB-468 [6]) [nM] | EC50, CellTiter-Blue viability (HCC1599 [7]) [nM] | EC50, CellTiter-Blue viability (BT-549 [8]) [nM] | EC50, CellTiter-Blue viability (CAL-120 [9]) [nM] | EC50, CellTiter-Blue viability (SK-BR-3 [10]) [nM] | EC50, CellTiter-Blue viability (MFM-223 [11]) [nM] | normalised viability (MDA-MB-231 [12]; 1 nM) [%] | normalised viability (MDA-MB-231 [12]; 100 nM) [%] | normalised viability (MDA-MB-231 [12]; 1000 nM) [%] | normalised viability (MDA-MB-468 [13]; 1 nM) [%] | normalised viability (MDA-MB-468 [13]; 100 nM) [%] | normalised viability (MDA-MB-468 [13]; 1000 nM) [%] | normalised viability (BT-549 [14]; 1 nM) [%] | normalised viability (BT-549 [14]; 100 nM) [%] | normalised viability (BT-549 [14]; 1000 nM) [%] | EC50, CellTiter-Glo (DU-4475) [nM] | EC50, CellTiter-Glo (HCC1143 [15]) [nM] | EC50, CellTiter-Glo (HDQ-P1) [nM] | EC50, CellTiter-Glo (MDA-MB-231 [16]) [nM] | EC50, CellTiter-Glo (Hs578T [17]) [nM] | EC50, CellTiter-Glo (HCC1937 [18]) [nM] | EC50, CellTiter-Glo (CAL-51) [nM] | EC50, CellTiter-Glo (BT-474) [nM] | EC50, CellTiter-Glo (MDA-MB-436 [19]) [nM] | EC50, CellTiter-Glo (MDA-MB-468 [20]) [nM] | EC50, CellTiter-Glo (HCC1599 [21]) [nM] | EC50, CellTiter-Glo (MDA-MB-453) [nM] | EC50, CellTiter-Glo (CAL-120 [22]) [nM] | EC50, CellTiter-Glo (MCF-10A) [nM] | EC50, CellTiter-Glo (CAL-148) [nM] | EC50, CellTiter-Glo (SK-BR-3 [23]) [nM] | EC50, CellTiter-Glo (CAL-85-1) [nM] | EC50, CellTiter-Glo (MFM-223 [24]) [nM] |
| --- | --- | --- | --- | --- | --- | --- | --- | --- | --- | --- | --- | --- | --- | --- | --- | --- | --- | --- | --- | --- | --- | --- | --- | --- | --- | --- | --- | --- | --- | --- | --- | --- | --- | --- | --- | --- | --- | --- |
| CC(C)C[C@H](NC(=O)[C@H](Cc1ccccc1)NC(=O)c1cnccn1)B(O)O [Bortezomib] | 6.46 | 3.89 | 22.2 | 2.93 | 34.9 | 2.95 | 79.5 | 7.83 | 5.42 | 2.77 | 6.67 | 92.4 | 2.05 | 0.27 | 88.3 | 3.55 | 2.21 | 99.8 | 6.67 | 3.15 | 27.1 | 19 | 12.4 | 13.9 | 13.1 | 71.2 | 30 | 8.94 | 6.1 | 2.93 | 97 | 22.9 | 16.1 | 134 | 60.1 | 0.28 | 4.47 | 5.1 |
| COc1cccc2c1C(=O)c1c(O)c3c(c(O)c1C2=O)C[C@@](O)(C(C)=O)C[C@@H]3O[C@H]1C[C@H](N)[C@H](O)[C@H](C)O1 [Daunorubicin] | 46.8 | 56.1 | 150 | 24.7 | 78.5 | 98.2 | 444 | 141 | 41.8 | 66.4 | 667 | 101 | 38.4 | 8.64 | 102 | 52.2 | 6.86 | 87 | 59 | 11 | 211 | 535 | 519 | 221 | 229 | 692 | 84.2 | 169 | 175 | 109 | 570 | 470 | 227 | 633 | 134 | 254 | 380 | 784 |

From the supplement of paper PMC4862054
